# Results reported in the supplement of paper PMC10307832.
# How the values were obtained:
# Experiment in all cases: relative viability (nuclei count vs DMSO), 5 days (fraction); higher = more cells survive
# Navitoclax = compound: CC1(C)CCC(c2ccc(Cl)cc2)=C(CN2CCN(c3ccc(C(=O)NS(=O)(=O)c4ccc(N[C@H](CCN5CCOCC5)CSc5ccccc5)c(S(=O)(=O)C(F)(F)F)c4)cc3)CC2)C1 [Navitoclax]
# In short: (§1)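 On vehicle-anchored 1536-well plates, lung cancer cell lines held overnight at 37 °C were pinned with five library-drug doses (not always all listed) spaced by √10. With no medium change over 5 days, they were then fixed, permeabilised and Hoechst-stained in one step and imaged at 4×. MetaXpress counted nuclei, and viability is the median across plates of treated-well over vehicle-well nuclei. Acceptance needed control CV below 25% and at least one doubling.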
# C-75 = compound: CCCCCCCC[C@H]1[C@@H](C(=C)C(=O)O1)C(=O)O [C-75]
# In short: as §1
# AZD7762 = compound: NC(=O)Nc1cc(-c2cccc(F)c2)sc1C(=O)N[C@H]1CCCNC1 [AZD7762]
# In short: as §1
# [1] = compound: O=C(O)c1ccc(-c2c[nH]c3ncc(-c4ccccc4)cc23)cc1C1CCCC1
# In short: as §1
# XAV939 = compound: Oc1nc(-c2ccc(C(F)(F)F)cc2)nc2c1CSCC2 [XAV939]
# In short: as §1
Cell Line,relative viability (Navitoclax; 0.005 µM),relative viability (Navitoclax; 0.01581 µM),relative viability (Navitoclax; 0.05 µM),relative viability (Navitoclax; 0.1581 µM),relative viability (Navitoclax; 0.5 µM),"relative viability (Navitoclax; 0.5 µM, anchor plate)",relative viability (C-75; 0.08 µM),relative viability (C-75; 0.253 µM),relative viability (C-75; 0.8 µM),relative viability (C-75; 2.53 µM),relative viability (C-75; 8 µM),relative viability (AZD7762; 0.01 µM),relative viability (AZD7762; 0.03162 µM),relative viability (AZD7762; 0.1 µM),relative viability (AZD7762; 0.3162 µM),relative viability (AZD7762; 1 µM),relative viability ([1]; 0.04 µM),relative viability ([1]; 0.1265 µM),relative viability ([1]; 0.4 µM),relative viability ([1]; 1.265 µM),relative viability (XAV939; 0.08 µM),relative viability (XAV939; 0.253 µM),relative viability (XAV939; 0.8 µM),relative viability (XAV939; 2.53 µM),"relative viability (AZD7762; 0.2 µM, anchor plate)"
COR-L 105,0.808,1.21,0.965,0.98,0.922,0.841,0.939,0.876,0.877,0.755,0.801,0.949,0.918,0.822,0.613,0.502,1,0.951,0.945,0.88,1.03,0.857,0.78,0.6,
Calu-6,0.979,1.01,1.1,0.933,0.93,0.824,1.03,1.02,0.964,0.912,0.948,1.05,0.992,0.873,0.475,0.145,0.982,1.01,0.955,0.78,1.07,0.904,0.985,0.944,
ChaGo-K-1,1.03,1.01,0.727,0.961,1.04,1.09,0.93,0.98,0.931,0.799,0.966,1.01,0.969,1.06,0.905,0.841,1.05,1.01,0.896,1.02,0.978,0.894,1.03,0.973,0.873
EBC-1,0.931,1.17,0.958,1.1,0.718,0.451,1.04,1.08,0.956,0.84,0.757,1.1,0.98,0.993,0.939,0.576,1.02,1.14,0.923,0.633,1.05,0.901,0.882,0.817,
EKVX,1.03,1.28,0.87,0.969,0.915,0.954,0.971,0.967,0.847,,1.02,0.947,1.03,0.929,0.962,0.8,0.962,1.14,1.01,0.865,1.04,0.852,0.833,0.694,0.696
EMC-BAC-2,0.924,1.02,0.981,0.932,0.976,1.16,0.959,0.952,0.908,0.828,0.921,1.05,1.02,1.05,0.995,0.975,0.993,1.04,0.974,0.899,1.01,0.969,0.869,0.655,1.17
EPLC-272H,0.993,,0.888,0.922,0.921,1.13,1.06,1.01,0.78,0.744,0.575,0.892,1.06,0.935,0.742,0.267,0.976,1.1,0.992,0.697,0.95,0.97,0.92,0.957,0.278
